Data taken from ChEMBL document CHEMBL5465560, “Selectivity Literature for EUbOPEN Chemogenomic Library” (2024).
Where a chain is given by its changes, count along the chain named.

How the values were obtained:
[1] = molecular target: Ribosomal protein S6 kinase alpha-6 (Homo sapiens, UniProt Q9UK32); test: Selectivity interaction (KinomeScan (DiscoverX)) EUB0001619a RPS6KA6; conditions: at 1 µM
[2] = test system: T1, Receptor-type tyrosine-protein kinase FLT3 (Homo sapiens), P36888 [D835Y]; test: (§1) Selectivity interaction (KinomeScan (DiscoverX)) EUB0000607a FLT3; conditions: at 10 µM
T1 sequence (whole entry): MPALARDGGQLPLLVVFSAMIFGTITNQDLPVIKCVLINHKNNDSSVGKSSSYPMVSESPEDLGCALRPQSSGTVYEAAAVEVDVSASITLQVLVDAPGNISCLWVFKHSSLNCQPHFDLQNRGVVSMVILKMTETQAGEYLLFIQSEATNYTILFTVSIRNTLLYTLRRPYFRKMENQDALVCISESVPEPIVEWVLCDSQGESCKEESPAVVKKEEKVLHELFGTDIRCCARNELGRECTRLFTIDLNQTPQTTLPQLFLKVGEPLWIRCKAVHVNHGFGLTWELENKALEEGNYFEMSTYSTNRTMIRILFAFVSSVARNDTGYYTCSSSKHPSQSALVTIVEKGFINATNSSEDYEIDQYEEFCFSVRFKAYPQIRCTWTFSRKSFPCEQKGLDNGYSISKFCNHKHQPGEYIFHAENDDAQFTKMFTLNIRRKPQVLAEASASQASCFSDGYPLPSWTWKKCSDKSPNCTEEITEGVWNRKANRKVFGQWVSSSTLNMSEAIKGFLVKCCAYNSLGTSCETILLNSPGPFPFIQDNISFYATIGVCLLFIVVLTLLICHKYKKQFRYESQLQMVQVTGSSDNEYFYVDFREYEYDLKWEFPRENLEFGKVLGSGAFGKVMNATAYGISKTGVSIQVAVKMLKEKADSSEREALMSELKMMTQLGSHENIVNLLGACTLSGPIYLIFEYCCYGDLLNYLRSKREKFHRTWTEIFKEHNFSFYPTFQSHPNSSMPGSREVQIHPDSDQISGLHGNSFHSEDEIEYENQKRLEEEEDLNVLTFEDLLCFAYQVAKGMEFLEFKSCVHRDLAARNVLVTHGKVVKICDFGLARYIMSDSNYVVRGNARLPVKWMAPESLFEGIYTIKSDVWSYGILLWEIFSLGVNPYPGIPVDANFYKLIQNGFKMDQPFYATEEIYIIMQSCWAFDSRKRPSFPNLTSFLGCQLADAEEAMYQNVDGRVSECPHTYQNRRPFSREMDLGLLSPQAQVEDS

[3] = test system: T2, Receptor-type tyrosine-protein kinase FLT3 (Homo sapiens), P36888 [D835H]; test: as §1; conditions: at 10 µM
T2 sequence (whole entry): T1 sequence (whole entry) with Y835H

[4] = molecular target: Receptor-type tyrosine-protein kinase FLT3 (Homo sapiens) (UniProt P36888); test: as §1; conditions: at 10 µM
[5] = test system: T3, Receptor-type tyrosine-protein kinase FLT3 (Homo sapiens), P36888 [R834Q]; test: as §1; conditions: at 10 µM
T3 sequence (whole entry): T1 sequence (whole entry) with R834Q, Y835D

Sequence of Ribosomal protein S6 kinase alpha-6 (Q9UK32 whole entry): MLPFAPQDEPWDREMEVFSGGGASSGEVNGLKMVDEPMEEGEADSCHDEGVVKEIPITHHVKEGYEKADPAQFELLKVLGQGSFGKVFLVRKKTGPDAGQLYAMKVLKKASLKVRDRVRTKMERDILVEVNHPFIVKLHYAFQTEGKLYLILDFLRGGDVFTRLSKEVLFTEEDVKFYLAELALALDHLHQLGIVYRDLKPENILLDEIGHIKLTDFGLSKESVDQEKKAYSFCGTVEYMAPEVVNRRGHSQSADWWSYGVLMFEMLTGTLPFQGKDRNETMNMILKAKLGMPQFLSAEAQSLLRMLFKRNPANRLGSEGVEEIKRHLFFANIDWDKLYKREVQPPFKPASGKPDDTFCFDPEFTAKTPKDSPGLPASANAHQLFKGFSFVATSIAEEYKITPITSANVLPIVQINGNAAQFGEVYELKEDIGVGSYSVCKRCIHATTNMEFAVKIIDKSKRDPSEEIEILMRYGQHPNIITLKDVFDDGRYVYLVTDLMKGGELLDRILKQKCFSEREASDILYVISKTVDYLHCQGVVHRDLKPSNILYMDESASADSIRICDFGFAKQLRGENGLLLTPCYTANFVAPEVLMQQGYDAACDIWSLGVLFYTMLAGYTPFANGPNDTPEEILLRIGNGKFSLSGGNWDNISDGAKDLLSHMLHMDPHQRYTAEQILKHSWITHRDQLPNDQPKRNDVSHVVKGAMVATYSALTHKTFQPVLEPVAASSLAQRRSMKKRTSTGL

## N#Cc1cccc(-c2c[nH]c3ncnc(N4CCOCC4)c23)c1
[1]
  % of control: 29%

## CNC(=O)Nc1ccc(-c2nc(N3CC4CCC(C3)O4)c3cnn(C4CCC5(CC4)OCCO5)c3n2)cc1
[2]
  % of control: 99%
[3]
  % of control: 82%
[4]
  % of control: 75%
[5]
  % of control: 79%
